Inconclusive results and toxic doses are left out. Rule as the data show it: active = T/C of 150% or more; inactive = T/C below 125%.
Tested on: L1210 leukemia ip in BDF1 mice, survival T/C
Assay: NCI In Vivo Anticancer Drug Screen. Data for tumor model L1210 Leukemia (intraperitoneal) in B6D2F1 (BDF1) mice
Conditions: endpoint: mean survival time, higher = longer survival
Procedure, shortened: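 Tumor was transplanted into mice, which were then dosed with test compound or vehicle alone. Survival was recorded for each group, and the treated figure was expressed relative to the control figure.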

[1] = dose: 100.0 mg/kg/injection, schedule: Q04DX003 (ip), vehicle: saline with Tween-80
[2] = dose: 200.0 mg/kg/injection, schedule: Q04DX003 (ip), vehicle: saline with Tween-80
[3] = dose: 200.0 mg/kg/injection, schedule: Q01DX001 (ip), vehicle: saline
[4] = dose: 100.0 mg/kg/injection, schedule: Q01DX001 (ip), vehicle: saline
[5] = dose: 100.0 mg/kg/injection, schedule: Q01DX009 (ip), vehicle: saline
[6] = dose: 200.0 mg/kg/injection, schedule: Q01DX009 (ip), vehicle: saline
[7] = dose: 400.0 mg/kg/injection, schedule: Q01DX009 (ip), vehicle: saline

Measured: T/C

CCC(=O)NC
inactive: dose: 100.0 mg/kg/injection, schedule: Q01DX001 (ip), vehicle: acetone 100 % of control | dose: 100.0 mg/kg/injection, schedule: Q01DX009 (ip), vehicle: acetone 101 % of control | dose: 200.0 mg/kg/injection, schedule: Q01DX001 (ip), vehicle: acetone 100 % of control | dose: 200.0 mg/kg/injection, schedule: Q01DX009 (ip), vehicle: acetone 97 % of control | dose: 400.0 mg/kg/injection, schedule: Q01DX001 (ip), vehicle: acetone 100 % of control | dose: 400.0 mg/kg/injection, schedule: Q01DX009 (ip), vehicle: acetone 100 % of control | dose: 555.0 mg/kg/injection, schedule: Q01DX015 (ip), vehicle: water 102 % of control | dose: 833.0 mg/kg/injection, schedule: Q01DX015 (ip), vehicle: water 115 % of control | dose: 1000.0 mg/kg/injection, schedule: Q01DX001 (ip), vehicle: water 98 % of control | dose: 1500.0 mg/kg/injection, schedule: Q01DX001 (ip), vehicle: water 104 % of control | dose: 2000.0 mg/kg/injection, schedule: Q01DX001 (ip), vehicle: water 113 % of control

CC(C)C(=O)Nc1cccc(Cl)c1
inactive: dose: 100.0 mg/kg/injection, schedule: Q01DX009 (ip), vehicle: saline with Tween-80 95 % of control | dose: 200.0 mg/kg/injection, schedule: Q01DX009 (ip), vehicle: saline with Tween-80 95 % of control | dose: 400.0 mg/kg/injection, schedule: Q01DX009 (ip), vehicle: saline with Tween-80 101 % of control

OCC1=C(CO)C2(Cl)C(Cl)=C(Cl)C1(Cl)C2(Cl)Cl
inactive: dose: 100.0 mg/kg/injection, schedule: Q01DX009 (ip), vehicle: Klucel (hydroxypropylcellulose) (HPC) 100 % of control | dose: 100.0 mg/kg/injection, schedule: Q04DX003 (ip), vehicle: saline 105 % of control | dose: 200.0 mg/kg/injection, schedule: Q01DX009 (ip), vehicle: Klucel (hydroxypropylcellulose) (HPC) 105 % of control | dose: 200.0 mg/kg/injection, schedule: Q04DX003 (ip), vehicle: saline 100 % of control | dose: 400.0 mg/kg/injection, schedule: Q01DX009 (ip), vehicle: Klucel (hydroxypropylcellulose) (HPC) 88 % of control | dose: 400.0 mg/kg/injection, schedule: Q04DX003 (ip), vehicle: saline 98 % of control

C/C(=N\N=C(/C)c1ccc2ccccc2c1)c1ccc2ccccc2c1
inactive: [1] 94 % of control | [2] 91 % of control

COc1ccc2nc3cc(Cl)ccc3c(NCCCCCN3CCCCC3)c2c1
inactive: dose: 5.0 mg/kg/injection, schedule: Q01DX001 (ip), vehicle: saline 97 % of control | dose: 10.0 mg/kg/injection, schedule: Q01DX001 (ip), vehicle: saline 97 % of control | dose: 20.0 mg/kg/injection, schedule: Q01DX001 (ip), vehicle: saline 101 % of control | dose: 40.0 mg/kg/injection, schedule: Q01DX001 (ip), vehicle: saline 106 % of control | dose: 80.0 mg/kg/injection, schedule: Q01DX001 (ip), vehicle: saline 100 % of control | [3] 94 % of control

N#C/C(=C\c1c(Cl)cccc1Cl)c1ccc([N+](=O)[O-])cc1
inactive: [1] 106 % of control | [2] 95 % of control | dose: 400.0 mg/kg/injection, schedule: Q04DX003 (ip), vehicle: saline with Tween-80 92 % of control

CCC(CC)OCCN1CCN(CCCN2c3ccccc3Sc3ccc(C(F)(F)F)cc32)CC1
inactive: dose: 0.39 mg/kg/injection, schedule: Q01DX009 (ip), vehicle: saline with Tween-80 107 % of control | dose: 0.78 mg/kg/injection, schedule: Q01DX009 (ip), vehicle: saline with Tween-80 107 % of control | dose: 1.56 mg/kg/injection, schedule: Q01DX009 (ip), vehicle: saline with Tween-80 95 % of control | dose: 1.56 mg/kg/injection, schedule: Q04DX003 (ip), vehicle: saline with Tween-80 97 % of control | dose: 3.12 mg/kg/injection, schedule: Q04DX003 (ip), vehicle: saline with Tween-80 96 % of control | dose: 6.25 mg/kg/injection, schedule: Q04DX003 (ip), vehicle: saline with Tween-80 112 % of control | dose: 12.5 mg/kg/injection, schedule: Q04DX003 (ip), vehicle: saline with Tween-80 97 % of control

Cc1cc(=O)n(C)c[n+]1C
inactive: dose: 50.0 mg/kg/injection, schedule: Q01DX001 (ip), vehicle: saline 93 % of control | dose: 50.0 mg/kg/injection, schedule: Q01DX009 (ip), vehicle: saline 106 % of control | [4] 106 % of control | [5] 109 % of control | [3] 100 % of control | [6] 113 % of control | dose: 400.0 mg/kg/injection, schedule: Q01DX001 (ip), vehicle: saline 96 % of control

CCCCCC[Si](CCCCCC)CCCCCC
inactive: dose: 75.0 mg/kg/injection, schedule: Q04DX003 (ip), vehicle: saline with Tween-80 93 % of control | [5] 102 % of control | dose: 150.0 mg/kg/injection, schedule: Q04DX003 (ip), vehicle: saline with Tween-80 90 % of control | [6] 105 % of control | dose: 300.0 mg/kg/injection, schedule: Q04DX003 (ip), vehicle: saline with Tween-80 88 % of control | [7] 93 % of control

COCCNP(=O)(OC(C)C)OC(C)C
inactive: [5] 97 % of control | [6] 92 % of control | [7] 94 % of control

CCC(C)(CCC(C)C)c1ccncc1 (stereo unspecified)
inactive: [4] 106 % of control | [3] 98 % of control

Source: PubChem BioAssay AID248 (DTP/NCI, 2004)
